Source: ChEMBL document CHEMBL3596141, “Isolation and Structure Elucidation of Fujikurins A-D: Products of the PKS19 Gene Cluster in Fusarium fujikuroi” (J Nat Prod, 2015)
Calls of active or inactive are those of the source. The rule behind the calls is not given here.

Tested on: HepG2
Assay: Cytotoxicity against human HepG2 cells assessed as cell viability up to 100 uM after 48 hrs by CCK-8 assay
Format: functional, cell-based

CCC(C)C(=O)C1=C(O)C(C)C(C)OC1=O (stereo unspecified)
Activity: inactive
